Assay results reported in ChEMBL document CHEMBL1781967, “1-[4-(N-Benzylamino)phenyl]-3-phenylurea derivatives as a new class of hypoxia-inducible factor-1alpha inhibitors” (Bioorg Med Chem Lett, 2009).
The source made the active and inactive calls. The calls are words filed in the database; no cut-off is given here.

How the values were obtained:
[1] = target: T1, Hypoxia-inducible factor 1-alpha (Homo sapiens, UniProt Q16665); assay: Inhibition of hypoxia-induced HIF1alpha transcriptional activity in HEK293 cells incubated for 16 hrs by hypoxia response element-driven luciferase reporter gene assay; assay type: cell-based
Target sequence in this assay (Q16665 whole entry): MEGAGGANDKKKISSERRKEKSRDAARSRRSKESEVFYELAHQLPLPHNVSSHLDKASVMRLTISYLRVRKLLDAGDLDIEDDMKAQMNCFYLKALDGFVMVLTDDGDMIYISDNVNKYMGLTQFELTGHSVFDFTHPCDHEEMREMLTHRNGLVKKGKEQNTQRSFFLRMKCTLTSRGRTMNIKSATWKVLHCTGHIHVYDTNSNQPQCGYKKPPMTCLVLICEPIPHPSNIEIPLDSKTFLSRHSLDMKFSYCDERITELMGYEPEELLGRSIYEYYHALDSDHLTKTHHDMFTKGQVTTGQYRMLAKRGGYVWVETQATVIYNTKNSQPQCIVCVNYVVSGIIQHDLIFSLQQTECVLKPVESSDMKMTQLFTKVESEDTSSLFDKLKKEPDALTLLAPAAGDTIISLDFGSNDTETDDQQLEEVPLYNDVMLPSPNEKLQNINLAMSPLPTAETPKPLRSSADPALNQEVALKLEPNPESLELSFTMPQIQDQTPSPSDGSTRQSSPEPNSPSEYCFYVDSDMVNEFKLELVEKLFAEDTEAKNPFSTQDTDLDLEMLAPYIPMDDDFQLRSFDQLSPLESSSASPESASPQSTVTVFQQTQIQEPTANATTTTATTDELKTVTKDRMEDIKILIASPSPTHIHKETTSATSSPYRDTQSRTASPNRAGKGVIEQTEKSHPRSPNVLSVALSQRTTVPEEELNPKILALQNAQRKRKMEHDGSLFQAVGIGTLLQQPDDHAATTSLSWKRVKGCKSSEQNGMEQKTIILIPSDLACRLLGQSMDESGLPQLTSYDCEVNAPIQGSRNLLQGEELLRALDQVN

[2] = target: T1, Hypoxia-inducible factor 1-alpha; assay: Inhibition of HIF1alpha accumulation in human HeLa cells incubated for 4 hrs under hypoxic conditions by Western blot; assay type: cell-based
Target sequence in this assay (Q16665 whole entry, looked up): as the sequence (Q16665 whole entry) above

[3] = test system: HeLa; assay: Effect on HIF1alpha mRNA expression in human HeLa cells incubated for 2 hrs under hypoxic conditions by RT-PCR; assay type: functional, cell-based
[4] = test system: HeLa; assay: Inhibition of hypoxia-induced VEGF secretion in human HeLa cells incubated for 12 hrs under hypoxic conditions by ELISA; assay type: functional, cell-based
[5] = test system: HeLa; assay: Effect on HIF1beta protein level in human HeLa cells incubated for 4 hrs under hypoxic conditions by Western blot

Compound | IC50 [1] [µM] | other results
O=C(Nc1ccccc1)Nc1ccc(NCc2cccc(C(=O)O)c2)cc1 | 41.6 | 
O=C(Nc1ccccc1)Nc1ccc(NCc2cccc(O)c2)cc1 | 69.9 | 
O=C(Nc1ccccc1)Nc1ccc(NCc2ccccc2C(=O)O)cc1 | 51.7 | 
COc1cccc(OC)c1CNc1ccc(NC(=O)Nc2ccccc2)cc1 | 39.1 | 
O=C(Nc1ccccc1)Nc1ccc(NCc2ccc(C(=O)O)cc2)cc1 | > 100 | 
COC(=O)c1ccc(CNc2ccc(NC(=O)Nc3ccccc3)cc2)cc1 | > 100 | 
COc1cccc(CNc2ccc(NC(=O)Nc3ccccc3)cc2)c1 | 52.1 | 

Compounds with a lower IC50 [1], results first:

IC50 [1] [µM] | Compound | other results
15.1 | COC(=O)c1cc(CNc2ccc(NC(=O)Nc3ccccc3)cc2)cc(C(=O)OC)c1 | 
8.62 | COc1cccc(CNc2ccc(NC(=O)Nc3ccccc3)cc2)c1OC | 
32.5 | COC(=O)c1ccccc1CNc1ccc(NC(=O)Nc2ccccc2)cc1 | 
18.7 | COc1cc(CNc2ccc(NC(=O)Nc3ccccc3)cc2)cc(OC)c1 | 
29.6 | COc1ccc(OC)c(CNc2ccc(NC(=O)Nc3ccccc3)cc2)c1 | 
23 | COc1ccc(CNc2ccc(NC(=O)Nc3ccccc3)cc2)cc1 | 
22.1 | COC(=O)c1ccc(OC)c(CNc2ccc(NC(=O)Nc3ccccc3)cc2)c1 | 
32.7 | O=C(Nc1ccccc1)Nc1ccc(NCc2ccccc2O)cc1 | 
35.5 | O=C(Nc1ccccc1)Nc1ccc(NCc2ccc(O)cc2)cc1 | 
7.21 | COC(=O)c1cccc(CNc2ccc(NC(=O)Nc3ccccc3)cc2)c1 | inhibition [2]: Dose-dependent effect; Activity [3]: inactive; IC50 [4]: 15 µM; inhibition [4]: Dose-dependent effect; Activity [5]: inactive
17.4 | COc1ccccc1CNc1ccc(NC(=O)Nc2ccccc2)cc1 | 
